# Literature values in US20240122968A1, “ENHANCED NITRATE COMPOSITIONS AND METHODS OF USE” (ThermoLife International, LLC, priority 2019, published 2024).
# Like-named read-outs stand apart in the source and are kept apart here.
# System: blood pressure
SMILES,effect on blood pressure (even at doses of 1.5 g per day (Weinberger et al.)),effect on blood pressure (high doses)
[Ca+2] [calcium],no notable effects on blood pressure,
[Zn] [Zinc],,increase blood pressure
